Laboratory results published in a melting point compilation (Tetko et al.; mined from patent text by program, amines drawn as free bases though some values may be those of a salt).

melting point [°C]	SMILES
> 260	COc1cc(OC)c(-c2nc3cccnc3[nH]2)cc1C=CC(=O)c1ccc(S(N)(=O)=O)cc1
82 to 84	CCOC(=O)C=Cc1cc(Br)cc(C(O)c2ccc(F)cc2)c1 (stereo not drawn)
288	Cc1nc2c(O)cccn2c(=O)c1CCN1CCC(c2noc3cc(F)ccc23)CC1
237	COC(=O)c1cccc(OCC(=O)NN=C2C(=O)Nc3ccc(I)cc32)c1
235 to 238	COc1cc2c3c(c1)nc(-c1ccccc1)n3CCC2=NO
215 to 218	NC(=O)c1csc(-c2cc3c(Oc4ccc(Cl)cc4)cncc3s2)n1
129 to 132	COc1cccc([C@H]2O[C@H](CC(=O)NCc3ccc(CC(=O)O)cc3)C(=O)N(CC(C)(C)CO)c3ccc(Cl)cc32)c1OC
159	c1ccc(CNc2nc3ccccc3s2)cc1
170 to 172	COc1ccc(C2Cc3cc(C(F)(F)F)ccc3NC(=O)C2COS(=O)(=O)c2ccc(C)cc2)cc1 (stereo not drawn)
86	CCCCCCCNC(=O)N(C)c1cccc(-c2cc(F)c(CCC(=O)O)c(F)c2)c1
91 to 92	CCOC(=O)c1c(C(F)(F)F)nc(C(F)(F)Cl)c(C(=O)OC)c1Nc1ccccc1
178 to 180	Cc1cc(-n2ccc(OCc3ccc(OC(F)F)cc3)cc2=O)sc1C(=O)NCc1ccccc1
> 250	COc1ccc2c(Nc3ccc4[nH]ccc4c3)c(C#N)cnc2c1
110 to 111	O=c1sc2cc(C(F)(F)F)cc([N+](=O)[O-])c2s1
121	CCN(c1ccccc1)C1CC(C)N(C(C)=O)c2ccc(-c3ccccc3)cc21 (stereo not drawn)
253 to 255	O=c1[nH]c(=S)[nH]c(-c2ccccc2)c1Cc1c(O)ccc2ccccc12
143 to 147	CCc1cc(C(=O)c2ccccc2Cl)c(-n2c(C)nnc2CNC(=O)c2[nH]c3ccccc3c2C)s1
240 to 242	Oc1ccc2nc(-c3cccc4c(O)cccc34)oc2c1
138 to 140	CCOC(=O)COc1ccc(SCc2ccc3sc(-c4ccc(C(F)(F)F)cc4)nc3c2)cc1C
116 to 119	Cc1c(SCCCSCc2ccncc2)ccnc1CNc1cnc2ccccc2c1
231 to 233	Cc1cc(-c2ccc(C(F)(F)F)nc2)cc(-c2cccc(-c3ccc(S(N)(=O)=O)s3)c2)n1
60 to 70	Cc1noc(NS(=O)(=O)c2ccccc2-c2ccc(-c3ncco3)cc2CNC(C)C(F)(F)F)c1C (stereo not drawn)
320	O=C1Nc2cnc(N3CCN(c4ncccn4)CC3)nc2S/C1=C/c1ccc([N+](=O)[O-])cc1
163 to 164	Cc1nc(-c2cccc(-n3cnc4cc(I)ccc43)c2)cs1
137 to 140	Cc1c(-c2cccnc2)n(CCCCCC(N)=O)c2ccc(Cl)cc12

More lines, now with the values behind:

SMILES	melting point [°C]
CC1(C)N=C(n2ccccc2=O)c2cc(C#N)ccc2O1	115 to 116
CCn1cnc2c(Nc3cccc(Cl)c3)nc(N3CCC[C@@H]3CN)nc21	126 to 129
C=CCNc1nc(NCC=C)nc(N2CCN(C(=O)n3ccnc3)CC2)n1	78 to 82
CCOC(=O)c1cn(Cc2ccc(OCc3ccccc3)cc2)nc1OCc1ccc(OCc2ccccc2)cc1	124 to 125
COC(=O)CCCCCCNC(=O)C(CS)Cc1ccccc1 (stereo not drawn)	68 to 70
CCC(=O)c1ccsc1N	140 to 142
CC#CNC(=O)NC(=NC(=O)NCCCCCCCC)SC	123 to 125
Cc1cnc2c(=O)[nH]c3ccccc3n12	> 300
COC(=O)c1c(C)oc2ccccc2c1=O	116 to 118
CCCCN1C(=O)NC(CCC(=O)O)C1=O (stereo not drawn)	130
CC(C)C(=O)Nc1nn(C)c2c1sc1c(Cl)cccc12	218 to 219
c1cnc(N2CCN(Cc3nc4ccccc4[nH]3)CC2)nc1	198 to 200
CCOC(=O)C1=Cc2sccc2S(=O)(=O)N1C	87 to 89
C[C@@H](N1CCN(c2ccc(Cl)cc2)C1=O)[C@@]1(c2ccc(F)cc2F)CO1	130 to 131
O=S1(=O)CCCN1Cc1ccncc1	82
CCOC(=O)COc1coccc1=O	58 to 60
COC(=O)/C=C/c1ccc(N2CCCC2=O)nc1	151 to 160
COC(=S)c1cnccc1Cc1ccccc1	98 to 99
Nc1ccc(Cl)c(O)c1	115 to 117
Cc1cc(C)c(/C=C2\C(=O)N(COC(=O)CCC(=O)O)c3ccccc32)[nH]1	160 to 163
CC(Nc1ncccc1C#N)c1c(Cl)cccc1Cl (stereo not drawn)	84.4
Oc1c(CCCBr)ccc2ccccc12	53 to 55
N#Cc1c2c(c3c(c1N1CCCCC1)Cc1ccccc1-3)-c1ccccc1C2	200 to 202
Cn1c2ccccc2c(=O)n2nc(C(N)=O)cc12	327 to 330

SMILES	melting point [°C]
CCONC(O)(CC)C1C(=O)C=C(CC)OC1=O (stereo not drawn)	63 to 64
COC(=O)c1ccc([N+](=O)[O-])c(OCCO)c1	97 to 98
COc1ccc2ncc3c(c2c1)C(OC(C)=O)CCC3 (stereo not drawn)	116 to 117
CCCC(C)(c1ccc(F)cc1)c1cc(O)c2c3c(c(=O)oc2c1)CCC3 (stereo not drawn)	133 to 135
C[C@@H](NC(=O)c1c[nH]c2ncc(-c3nn(C)c4cc(Cl)ccc34)nc12)C(=O)N1CC[C@H](F)C1	269 to 271
CC1(C)NC(=O)OC12CCN(C(=O)OCc1ccccc1)CC2	208 to 209
CCOCc1nc2c(N)nc3cc(-n4cccn4)ccc3c2n1CCCOC	159 to 160
C#CCON=Cc1cc(Cl)ccc1OC(=O)NC	97 to 100
COc1ccc(N2CCN(CCn3c(=O)[nH]c4sccc4c3=O)CC2)cc1	249 to 251
N#CCc1ccc(CCOc2ccc([N+](=O)[O-])cc2)nc1	94 to 95
COc1cc(OC)nc(Oc2cccc(Cl)c2C(=O)NS(=O)(=O)C(C)C)n1	150 to 152
C(=C\c1nc(COc2ccc(CCCn3ccnn3)cc2)co1)/c1ccccc1	142 to 143
BrC/C(=C(\CBr)c1ccccc1)c1ccccc1	98
Cc1cccc(NC(=O)OC(C)(C)C)c1COc1cccn2c(C)c(C)nc12	128 to 131
Fc1cccc(F)c1C(C1=NOCCO1)N1CCc2sccc2C1 (stereo not drawn)	151 to 153
CN1CCN(c2cccc(C(=O)N3CC=C(c4ccccc4F)CC3)n2)CC1	177
CC1(C)CC(NC(=O)c2cc([N+](=O)[O-])cc([N+](=O)[O-])c2)CC(C)(C)N1	220 to 222
NC(=O)CN1CCC1=O	112 to 113
CC1COC(c2cnc(C3=NC(C)(C(C)C)C(=O)N3)c(C(=O)O)c2)O1 (stereo not drawn)	50 to 62
COC(=O)C1CCC2C3CCC4CC5OC5CC4(C)C3C(=O)CC12C (stereo not drawn)	140 to 145
Brc1ccc2c(c1)C(c1ccc(Oc3ccccc3)cc1)(c1ccc(Oc3ccccc3)cc1)c1cc(Br)ccc1-2	178 to 180
O=C(Nc1cnccn1)Nc1cccc2c1C1CCCCN1C2=O (stereo not drawn)	215
CC(C)n1c(=O)[nH]c2cccc(OCc3ccccc3)c21	224
COc1ccc(-c2cc3nccnc3[nH]2)cc1OCC(=O)O	330 to 332
